Laboratory results: US11446299B2, “Carbazole EHop-016 derivatives as anticancer and anti-migratory agents” (UNIVERSITY OF PUERTO RICO, priority 2017, dated 2022)

Assay: HV-118 toxicity assessment in mice
Type: in vivo
Conditions: 1 mg/kg BW
Description: FIG. 19 (A-C). HV-118 toxicity assessment. Blood collected at necropsy was used for FIG. 19A. complete blood count (CBC) analysis and FIG. 19B. determination of serum levels of liver enzymes Alanine Aminotranferase (ALT), Aspartate Aminotransferse (AST), and Alkaline phosphatase (ALP). N=4-5 mice/group; error bars represent ±SEM. FIG. 19C. Average mouse weight as a function of days following HV-118 administration. N=13-15 mice/group.
An in vivo study was performed to assess HV-118 toxicity and test its effects in mammary tumor growth and metastasis. Immunocompromised mice were inoculated with green fluorescent protein (GFP)-tagged MDA-MB-231 cells. After tumors reached an average size of 80 mm^3, mice (n=15/group) were administered with control or HV-118 at 1 mg/kg body weight (BW) by intraperitoneal (i.p.) injection every day from Monday to Friday for approximately 2 months. The effects of HV-118 on tumor growth were monitored weekly by in situ fluorescence image analysis (starting from day 1 of treatment). Mammary tumor growth was quantified using Image J software, as the pixel intensity (integrated density) determined from digital tracing of the fluorescent tumor area at each imaging session and calculated as a function of the fluorescence intensity on day one of treatment. At necropsy, blood was collected, and organs were dissected and stored in liquid nitrogen. Metastatic foci were quantified for fluorescence intensity and area of fluorescence (lesion size) for each organ by Image J analysis of digital images from a fluorescence stero microscope. […] Toxicity was assessed by: 1) performing a hematologic profile (complete blood count (CBC) analysis), 2) measuring serum levels of liver enzymes Alanine Aminotranferase (ALT), Aspartate Aminotransferse (AST), and Alkaline phosphatase (ALP), and 3) monitoring animal weight throughout the study.

CCn1c2ccccc2c2cc(Nc3cc(C)nc(Cl)n3)ccc21 [HV-118, (2-Chloro-6-methyl-pyrimidin-4-yl)-(9-ethyl-9H-carbazol-3-yl)-amine]
toxicity at the tested dose: no toxicity | hematologic profile (complete blood count) (blood at necropsy): no changes | serum levels of ALT, AST, or ALP (blood at necropsy): no changes | mice weights (throughout the study): no changes
